Test results as given in US3988473A (priority 1975, dated 1976).
Several values for one entry are separate records, joined by “and”; a condition that tells them apart may be missing. Equal values may be shown once. Read-outs that look alike come from different tables or passages of the source.

Columns and labels:
[1] = tested on: Guinea Pig Intradermal Wheals; conditions: in vivo
[2] = in vivo
rat sciatic nerve = conditions: in vivo
Cat = conditions: in vivo
Female Mice = conditions: mouse, in vivo
tissue = conditions: in vivo
in vivo [3] = conditions: mouse
[4] = tested on: isolated frog sciatic nerve; set-up: species or system Rana pipiens; conditions: for Greatest Depth of Block (% of action potential): frog, sciatic nerve
in vivo [5] = conditions: mouse, ip
Sheep = conditions: in vivo
Dog = conditions: in vivo
[6] = tested on: brain and the spinal cord; conditions: in vivo
guinea pigs = conditions: guinea pig, in vivo, sc, 646 mg/kg
in vivo [7] = conditions: rat, sc

| SMILES | Duration of guinea pig intradermal wheals [1] | Local anaesthetic effect (in words) [2] | Duration (rat sciatic nerve) | Frequency (rat sciatic nerve) | Onset (rat sciatic nerve) | Duration of Block of Support of Weight (Cat) | Tissue irritation (in words) (tissue) | LD50 (in vivo [3]; ip) [mg/kg] | LD50 (in vivo [3]; iv) [mg/kg] | LD50 (in vivo [3]; sc) [mg/kg] | Average time for 80% recovery of action potential [4] [min] | also measured |
| --- | --- | --- | --- | --- | --- | --- | --- | --- | --- | --- | --- | --- |
| Cc1cccc(C)c1NC(=O)CNC(C)(C)C [A, 2-(tert.-butylamino)-2',6'-acetoxylidide] | 129 ± 14 min and 148 ± 20 min and 186 ± 17 min and 197 ± 14 min | unusually long-lasting local anaesthetic effect | 126 ± 12 and 157 ± 18 | 5/5 | 5 min | 54 ± 9 min and 104 ± 29 min | quite satisfactory | 119 | 35.4 | 141 |  | Intravenous toxicity (in words) (Female Mice; iv): unusually low intravenous toxicity |
| CCN(CC(=O)Nc1c(C)cccc1C)C(C)(C)CC [C, 2-(N-ethyl-tert.-amylamino)-2',6'-acetoxylidide] | 158 ± 49 min and 230 ± 32 min and 301 ± 11 min | unusual, long-lasting local anaesthetic effect and high local anaesthetic activity |  |  |  | 220 ± 64 min and 298 ± 56 min | satisfactory low level of tissue irritation | 81 | 7.4 |  | 29 | Greatest Depth of Block (% of action potential) ([4]; 20000 µM): 77%; Duration of anaesthesia (in words) [2]: significantly longer duration than compounds A and B; Duration of rat sciatic nerve block (days) (rat sciatic nerve): 1 to 8 days; Duration of Block of Support of Weight, 1 animal outside the mean (Cat): > 7 h; Acute toxicity (in words) (Female Mice): satisfactory low acute toxicity; Irritation compared with bupivacaine (tissue): not more irritating than bupivacaine at 0.5% concentration |
| Cc1cccc(C)c1NC(=O)C(C)NC(C)(C)C (centres unmarked) [Compound B, 2-(tert.-butylamino)-2',6'-propionoxylidide] |  |  | 128 ± 13 and 133 ± 7 | 5/5 | 3 min and 2 min |  |  |  |  |  |  | Guinea Pig Wheal Duration [1]: 139 ± 24 and 160 ± 43 and 184 ± 36; Guinea Pig Wheal Frequency [1]: 12/12; Adverse signs in rat sciatic test (rat sciatic nerve): Depression, ataxia, loss of righting reflex in some animals; Rat Sciatic Frequency (rat sciatic nerve): 8/10 and 10/10; LD50 (in vivo [5]): 61 mg/kg |
| CCCN(CC(=O)Nc1c(C)cccc1C)C(C)(C)CC [Compound D, 2-(N-n-propyl-tert.-amylamino)-2',6'-acetoxylidide] | 171 ± 26 min and 227 ± 21 min and 253 ± 16 min and 303 ± 19 min | unusual, long-lasting local anaesthetic effect and high local anaesthetic activity |  |  |  |  | satisfactory low level of tissue irritation | 39 | 6.8 | 109 | 163 | Greatest Depth of Block (% of action potential) ([4]; 5000 µM): 96%; Duration of block of Digital Pain (Sheep): 45 to 60 min; Onset time (Sheep): 5 to 10 min; Duration of anaesthesia (in words) [2]: significantly longer duration than compounds A and B; Duration of block, 2 animals outside the mean (rat sciatic nerve): 10 to 13 days; Duration of rat sciatic nerve block (rat sciatic nerve): 217 ± 25 min and 124 ± 50 min and 157 ± 30 min; Duration of rat sciatic nerve block (days) (rat sciatic nerve): 8 to 27 days and 13 to 30 days; Acute toxicity (in words) (Female Mice): satisfactory low acute toxicity; Duration of block of Digital Pain (Dog): 1 to 2 days; Duration, Digital Pain (Dog): 289 min and 338 min; Duration, Scrotal Pain (Dog): 218 min and 226 min; Recovery of the animals (Dog): All animals recovered completely; Pathological change in brain and spinal cord [6]: no pathological change attributable to the drugs was found; Irritation compared with bupivacaine (tissue): not more irritating than bupivacaine at 0.5% concentration |
| CCCCN(CC(=O)Nc1c(C)cccc1C)C(C)(C)C [Compound E, 2-(N-n-butyl-tert.-butylamino)-2',6'-acetoxylide] |  |  |  |  |  |  |  |  |  |  |  | Duration of rat sciatic nerve block, Mean ± S.D. (rat sciatic nerve): 174 ± 26 min and 200 ± 18 min and 237 min; Frequencies and durations (in words) (rat sciatic nerve): Frequencies and durations were good; Frequency of rat sciatic nerve block (rat sciatic nerve): 9/10 and 10/10; Duration of block of Digital Pain (Dog): 1 to 2 days; Recovery of the animals (Dog): All animals recovered completely; Survival (guinea pigs): all animals survived; Pathological change in brain and spinal cord [6]: no pathological change attributable to the drugs was found; LD50 (in vivo [5]): 284 mg/kg; LD50 (in vivo [7]): 1070 mg/kg |
| CCC(C)(C)NCC(=O)Nc1c(C)cccc1C [Compound F, 2-(N-tert.-amylamino)-2',6'-acetoxylidide] |  |  | 97 ± 4 and 101 ± 8 | 6/6 | 3 min and 2 min |  |  |  |  |  |  |  |
| CCCCN1CCCCC1C(=O)Nc1c(C)cccc1C (centres unmarked) [X, N-n-butylpipecolyl-2,6-xylidide, reference compound] | 182 ± 4 min and 252 ± 5 min and 314 ± 10 min |  |  |  |  |  |  | 40 | 6.4 | 45 | 65 | Greatest Depth of Block (% of action potential) ([4]; 5000 µM): 64%; Toxic effects (Cat): Toxic effects observed |
| CCN(CC)CC(=O)Nc1c(C)cccc1C [Y, diethylaminoaceto-2,6-xylide, reference compound] | 78 ± 9 min and 110 ± 13 min and 117 ± 6 min and 121 ± 12 min |  |  |  |  | 88 ± 10 min |  |  |  |  |  |  |
